Patent US20230114241A1, “METHODS OF TREATING EPILEPSY USING THE SAME” (Trevena, Inc., priority 2019, published 2023)

Columns and labels:
[1] = target: T1, human sphingosine-1-phosphate receptor 1 (S1P1) (Homo sapiens, UniProt P21453); test: β-Arrestin2 recruitment assay (PathHunter), S1P1 CHO-K1 cells; format: cell-based; conditions: for Emax: efficacy normalized to maximum efficacy of fingolimod, read-out: hS1P1 B-arrestin2 SPAN; for EC50: β-arrestin2 recruitment, read-out: hS1P1 B-arrestin2 pEC50 (converted)
Summary of the method: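 CHO-K1 cells co-expressing EA-β-arrestin2 and ProLink-tagged human S1P1 plated overnight, then stimulated 60 min at 37 °C. Enzyme-fragment complementation (β-galactosidase) detected after 1 h at room temperature by luminescence; values normalized to fingolimod.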
Target sequence in this assay (P21453 whole entry, the tested form may be a part): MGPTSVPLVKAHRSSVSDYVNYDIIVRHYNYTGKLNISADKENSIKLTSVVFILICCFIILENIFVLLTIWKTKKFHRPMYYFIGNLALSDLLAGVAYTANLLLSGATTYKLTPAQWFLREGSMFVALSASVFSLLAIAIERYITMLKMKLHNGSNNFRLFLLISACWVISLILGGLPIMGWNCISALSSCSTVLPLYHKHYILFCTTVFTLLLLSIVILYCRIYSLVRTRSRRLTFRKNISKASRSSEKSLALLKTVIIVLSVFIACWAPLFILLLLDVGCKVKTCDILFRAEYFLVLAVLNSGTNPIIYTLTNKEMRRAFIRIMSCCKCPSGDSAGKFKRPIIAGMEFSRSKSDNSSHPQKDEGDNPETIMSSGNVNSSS
Target sequence in this assay (P32121 whole entry partner, the tested form may be a part): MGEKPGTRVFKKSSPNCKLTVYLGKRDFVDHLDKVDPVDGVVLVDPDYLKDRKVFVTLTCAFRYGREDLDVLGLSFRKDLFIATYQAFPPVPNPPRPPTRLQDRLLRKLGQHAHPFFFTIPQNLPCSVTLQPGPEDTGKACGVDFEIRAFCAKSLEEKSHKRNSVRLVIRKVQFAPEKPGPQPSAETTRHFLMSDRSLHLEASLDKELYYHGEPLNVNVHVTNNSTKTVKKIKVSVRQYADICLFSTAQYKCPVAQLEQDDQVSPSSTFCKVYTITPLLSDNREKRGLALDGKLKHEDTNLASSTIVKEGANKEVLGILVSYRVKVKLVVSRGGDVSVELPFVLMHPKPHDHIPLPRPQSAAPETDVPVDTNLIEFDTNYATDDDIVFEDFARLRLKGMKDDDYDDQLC

[2] = target: T1, human sphingosine-1-phosphate receptor 1 (S1P1); test: Inhibition of cAMP production (HTRF cAMP HiRange), S1P1 CHO-K1 cells; format: cell-based; conditions: for Emax: CHO-K1, efficacy normalized to maximum efficacy of fingolimod, read-out: hS1P1 CAMP SPAN; for EC50: read-out: hS1P1 CAMP pEC50 (converted)
Summary of the method: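 CHO-K1 cells co-expressing human S1P1 (C-terminal ProLink tag) and EA-β-arrestin2, plated overnight; after 30 min compound incubation at 37 °C, intracellular cAMP measured by HTRF TR-FRET following 1 h at room temperature. Values normalized to fingolimod.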
Target sequence in this assay (P21453 whole entry, the tested form may be a part): as the sequence (P21453 whole entry, the tested form may be a part) above

[3] = CHO-K1, β-arrestin2 recruitment
[4] = inhibition of cAMP production, potency
[5] = inhibition of cAMP production, S1P1

Compound | Emax [1, 3] [%] | EC50 ([1]; potency) [µM] | Emax ([2]; inhibition of cAMP production) [%] | EC50 [2, 4] [nM] | Emax ([1]; CHO-K1) [%] | EC50 ([1]; S1P1) [µM] | Emax [2] [%] | EC50 [2, 5] [nM]
CCC1(CC)CC(=O)c2cc(-c3nc(-c4cccc(C)c4)no3)ccc2O1 [Compound 225, 2,2-diethyl-6-(3-(m-tolyl)-1,2,4-oxadiazol-5-yl)chroman-4-one] | < 75 | < 10 | > 75 | > 316 |  |  |  | 
CC(C)Nc1ccc(-c2ncc(-c3ccc4[nH]c(=O)[nH]c4c3)cn2)cc1C#N [Compound 628, 2-(isopropylamino)-5-(5-(2-oxo-2,3-dihydro-1H-benzo[d]imidazol-5-yl)pyrimidin-2-yl)benzonitrile] |  |  |  |  | < 75 | < 10 | > 75 | < 316
Cn1cnc2ccc(-c3nnc(-c4ccc(NC(C)(C)CO)c(C#N)c4)o3)cc21 [Compound 634, 2-[(1-hydroxy-2-methylpropan-2-yl)amino]-5-[5-(1-methyl-1H-1,3-benzodiazol-6-yl)-1,3,4-oxadiazol-2-yl]benzonitrile] |  |  |  |  | < 75 | > 10 | < 75 | > 316
Cc1cccc(-c2noc(-c3ccc4c(c3)nnn4C3CCCCC3)n2)c1 [Compound 11, 1-cyclohexyl-5-[3-(3-methylphenyl)-1,2,4-oxadiazol-5-yl]-1H-1,2,3-benzotriazole] | < 75 | > 10 | < 75 | > 316 |  |  |  | 
COc1cccc(-c2nc(-c3ccc4c(ccn4C(C)C)c3)no2)c1 [Compound 392, 3-(1-isopropyl-1H-indol-5-yl)-5-(3-methoxyphenyl)-1,2,4-oxadiazole] |  |  |  |  | < 75 | > 10 | < 75 | > 316
CCC1(CC)CC(=O)c2cc(-c3nc(-c4ccccc4OC)ns3)ccc2O1 [Compound 257, 2,2-diethyl-6-(3-(2-methoxyphenyl)-1,2,4-thiadiazol-5-yl)chroman-4-one] | < 75 | > 10 | > 75 | > 316 |  |  |  | 
CC(C)(CO)n1nnc2cc(-c3noc(-c4ccncc4C(F)(F)F)n3)ccc21 [Compound 626, 2-methyl-2-(5-(5-(3-(trifluoro-methyl)pyridin-4-yl)-1,2,4-oxadiazol-3-yl)-1H-benzo[d] [1,2,3]triazol-1-yl)propan-1-ol] |  |  |  |  | < 75 |  | < 75 | > 316
CCC1(CC)CC(=O)c2cc(-c3nc(-c4ccncn4)no3)ccc2O1 [Compound 639, 2,2-diethyl-6-(3-(pyrimidin-4-yl)-1,2,4-oxadiazol-5-yl)chroman-4-one] |  |  |  |  | > 75 | > 10 | < 75 | > 316
Cc1cncc(-c2nc(-c3ccc4c(c3)nnn4C(C)C)no2)c1 [Compound 159, 3-(1-isopropyl-1H-benzo[d][1,2,3]triazol-5-yl)-5-(5-methylpyridin-3-yl)-1,2,4-oxadiazole] | < 75 | > 10 | < 75 | > 316 |  |  |  | 
CCC1(CC)CC(=O)c2cc(-c3nc(-c4cccs4)no3)ccc2N1 [Compound 591, 2,2-diethyl-6-(3-(thiophen-2-yl)-1,2,4-oxadiazol-5-yl)-2,3-dihydroquinolin-4(1H)-one] |  |  |  |  | > 75 | < 10 | < 75 | < 316
CC(C)Oc1ccc(-c2nc(-c3ccc4c(c3)nnn4C(C)C)no2)cc1C(F)(F)F [Compound 246, 5-(4-isopropoxy-3-(trifluoromethyl)phenyl)-3-(1-isopropyl-1H-benzo[d][1,2,3]triazol-5-yl)-1,2,4-oxadiazole] | > 75 | < 10 | > 75 | < 316 |  |  |  | 
CCC1(CC)CC(=O)c2cc(-c3nc(-c4ccc(S(=O)(=O)N(C)C)cc4)no3)ccc2O1 [Compound 30, 4-(5-(2,2-diethyl-4-oxochroman-6-yl)-1,2,4-oxadiazol-3-yl)-N,N-dimethylbenzene-sulfonamide] | < 75 | > 10 | < 75 | > 316 |  |  |  | 
